# Test results from ChEMBL document CHEMBL1201862, “PubChem BioAssay data set” (2004).
# Calls of active or inactive are those of the source.
# Experiments:
# [1] = biological target: T1, Endoribonuclease toxin MazF (Escherichia coli K-12, UniProt P0AE70); experiment: substrate-only fluorescence increase artefacts – biochemical, single-stranded RNase substrate, counter-screen for MazEF activator project, dose response (AID 588502); type: functional
# T1 sequence (P0AE70 whole entry): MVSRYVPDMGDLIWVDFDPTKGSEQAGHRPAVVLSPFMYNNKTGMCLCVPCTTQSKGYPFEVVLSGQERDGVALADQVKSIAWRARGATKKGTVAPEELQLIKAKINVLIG
# [2] = biological target: T1, Endoribonuclease toxin MazF; experiment: activation of MazEF endoribonuclease cleavage – biochemical, fluorescence, single-stranded RNA substrate, uHTS hits, dose response (AID 588481); type: functional
# Protein skinhead-1 = biological target: T2, Protein skinhead-1 (Caenorhabditis elegans, UniProt P34707); type: functional
# T2 sequence (P34707 whole entry): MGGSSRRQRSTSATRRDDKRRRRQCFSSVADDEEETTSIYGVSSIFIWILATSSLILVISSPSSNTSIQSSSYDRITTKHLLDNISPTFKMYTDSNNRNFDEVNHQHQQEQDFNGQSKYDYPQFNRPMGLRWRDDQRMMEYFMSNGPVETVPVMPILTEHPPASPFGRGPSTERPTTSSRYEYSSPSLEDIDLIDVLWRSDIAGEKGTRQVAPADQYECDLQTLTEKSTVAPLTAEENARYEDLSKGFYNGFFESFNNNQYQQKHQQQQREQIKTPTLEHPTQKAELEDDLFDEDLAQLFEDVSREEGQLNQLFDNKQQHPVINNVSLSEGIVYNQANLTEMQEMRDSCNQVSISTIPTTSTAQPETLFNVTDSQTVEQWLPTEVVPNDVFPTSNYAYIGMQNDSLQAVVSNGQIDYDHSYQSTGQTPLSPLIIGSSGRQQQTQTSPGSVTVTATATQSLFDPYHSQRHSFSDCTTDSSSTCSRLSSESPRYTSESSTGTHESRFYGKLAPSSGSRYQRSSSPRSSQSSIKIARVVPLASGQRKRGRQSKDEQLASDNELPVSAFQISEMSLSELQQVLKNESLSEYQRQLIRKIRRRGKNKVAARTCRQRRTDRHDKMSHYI
# [3] = biological target: Glyceraldehyde-3-phosphate dehydrogenase (Homo sapiens, UniProt P04406)
# [4] = biological target: T3, Alkaline phosphatase, tissue-nonspecific isozyme (Homo sapiens, UniProt P05186); experiment: potency against alkaline phosphatase TNAP – biochemical, luminescent, dose response, SAR follow-up (AID 1056)
# T3 sequence (P05186 whole entry): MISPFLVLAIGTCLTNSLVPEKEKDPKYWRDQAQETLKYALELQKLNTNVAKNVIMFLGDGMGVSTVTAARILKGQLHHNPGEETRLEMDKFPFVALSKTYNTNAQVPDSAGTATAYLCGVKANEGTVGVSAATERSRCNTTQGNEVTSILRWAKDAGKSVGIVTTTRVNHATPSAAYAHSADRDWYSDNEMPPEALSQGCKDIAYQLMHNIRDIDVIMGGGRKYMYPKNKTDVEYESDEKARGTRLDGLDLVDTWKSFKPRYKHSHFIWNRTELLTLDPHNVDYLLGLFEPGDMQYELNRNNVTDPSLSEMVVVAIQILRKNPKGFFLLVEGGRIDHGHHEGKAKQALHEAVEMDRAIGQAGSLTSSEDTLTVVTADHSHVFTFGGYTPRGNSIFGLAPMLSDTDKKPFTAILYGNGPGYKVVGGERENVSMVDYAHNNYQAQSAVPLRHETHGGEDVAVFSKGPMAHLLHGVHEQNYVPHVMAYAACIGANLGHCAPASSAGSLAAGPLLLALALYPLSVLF
# Cytochrome P450 3A4 = Cytochrome P450 3A4 (Homo sapiens, UniProt P08684);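 note: CYP3A4 tested as one member of a cytochrome P450 panel screen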
# Cytochrome P450 2C9 = Cytochrome P450 2C9 (Homo sapiens, UniProt P11712)
# [5] = viability of PTEN-deleted HCT116 cells – cell-based, HCT116 PTEN knockout, dose response (AID 1047); type: functional;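 note: HCT116 colon tumor cells with PTEN knocked out; cells exposed to compound for 60 hours before readout; potency for loss of cell viability measured by luminescence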
# Melanocortin receptor 4 = Melanocortin receptor 4 (Homo sapiens, UniProt P32245); type: functional, cell-based;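 note: Cell-based assay with luminescence read-out, confirmatory dose-response testing for agonist activity of biased ligands at MC4R; human U2OS cells with tagged receptor and beta-arrestin; potency of agonists that increase receptor coupling to beta-arrestin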
# [6] = viability of HCT116 lacking mutant beta-catenin – cell-based, human colon tumor, dose response (AID 1045); type: functional;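 note: HCT116 colon tumor cells with beta catenin knocked out; cells exposed to compound for 60 hours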
# Cytochrome P450 1A2 = biological target: T4, Cytochrome P450 1A2 (Homo sapiens, UniProt P05177);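 note: PubChem cytochrome P450 panel assay, CYP1A2 panel member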
# T4 sequence (P05177 whole entry): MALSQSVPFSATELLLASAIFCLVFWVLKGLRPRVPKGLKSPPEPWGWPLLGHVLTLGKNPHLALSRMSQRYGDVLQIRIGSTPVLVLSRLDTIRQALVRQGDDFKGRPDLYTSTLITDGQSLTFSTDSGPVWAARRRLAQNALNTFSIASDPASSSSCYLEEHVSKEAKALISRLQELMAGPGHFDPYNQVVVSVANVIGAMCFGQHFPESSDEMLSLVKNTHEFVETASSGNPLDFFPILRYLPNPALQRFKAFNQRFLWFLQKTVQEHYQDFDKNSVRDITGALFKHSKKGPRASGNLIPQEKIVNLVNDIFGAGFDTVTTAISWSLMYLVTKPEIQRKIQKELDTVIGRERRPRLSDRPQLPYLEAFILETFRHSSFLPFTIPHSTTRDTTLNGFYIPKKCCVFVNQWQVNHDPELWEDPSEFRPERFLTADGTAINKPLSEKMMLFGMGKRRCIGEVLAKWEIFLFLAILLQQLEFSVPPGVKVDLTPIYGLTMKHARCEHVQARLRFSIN
# Coagulation factor XII = biological target: T5, Coagulation factor XII (Homo sapiens, UniProt P00748); type: functional;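 note: activated factor XIIa alpha cleaving a fluorogenic AMC peptide substrate; inhibitor potency from loss of enzyme activity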
# T5 sequence (P00748 whole entry): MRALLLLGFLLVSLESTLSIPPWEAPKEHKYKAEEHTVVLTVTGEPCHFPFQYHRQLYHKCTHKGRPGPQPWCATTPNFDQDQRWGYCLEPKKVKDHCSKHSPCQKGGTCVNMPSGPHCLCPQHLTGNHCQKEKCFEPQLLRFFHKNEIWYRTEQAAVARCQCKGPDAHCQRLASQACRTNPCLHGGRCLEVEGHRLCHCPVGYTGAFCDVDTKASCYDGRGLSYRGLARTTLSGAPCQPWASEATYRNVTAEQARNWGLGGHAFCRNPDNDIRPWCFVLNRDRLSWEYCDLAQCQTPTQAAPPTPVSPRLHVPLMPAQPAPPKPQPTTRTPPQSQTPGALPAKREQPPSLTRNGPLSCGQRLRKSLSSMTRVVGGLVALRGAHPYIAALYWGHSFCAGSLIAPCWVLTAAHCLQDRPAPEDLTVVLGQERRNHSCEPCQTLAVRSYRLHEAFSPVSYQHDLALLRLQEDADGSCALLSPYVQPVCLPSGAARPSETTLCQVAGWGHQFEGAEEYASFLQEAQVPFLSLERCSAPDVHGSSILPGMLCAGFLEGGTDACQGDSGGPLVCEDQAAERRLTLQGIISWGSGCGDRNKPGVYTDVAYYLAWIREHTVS
# [7] = biological target: T6, Zinc finger protein mex-5 (Caenorhabditis elegans, UniProt Q9XUB2); experiment: potency of MEX-5 RNA-binding blockers – biochemical, C. elegans, fluorescence polarization, dose response (AID 1960)
# T6 sequence (Q9XUB2 whole entry): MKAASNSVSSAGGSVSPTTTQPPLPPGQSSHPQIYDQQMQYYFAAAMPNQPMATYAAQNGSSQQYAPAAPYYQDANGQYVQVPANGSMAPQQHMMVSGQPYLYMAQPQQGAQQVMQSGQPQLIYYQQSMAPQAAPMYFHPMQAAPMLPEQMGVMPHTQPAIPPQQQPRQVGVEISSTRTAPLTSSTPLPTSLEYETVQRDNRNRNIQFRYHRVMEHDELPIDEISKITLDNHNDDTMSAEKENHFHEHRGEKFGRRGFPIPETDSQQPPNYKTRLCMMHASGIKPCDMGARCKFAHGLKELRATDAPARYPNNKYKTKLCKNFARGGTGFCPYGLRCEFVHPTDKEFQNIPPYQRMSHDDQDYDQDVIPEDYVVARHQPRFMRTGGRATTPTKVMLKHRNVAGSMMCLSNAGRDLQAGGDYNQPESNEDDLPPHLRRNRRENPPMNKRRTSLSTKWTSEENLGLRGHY
# [8] = biological target: T7, RNA-binding protein pos-1 (Caenorhabditis elegans, UniProt G5EF15); experiment: disruptors of C. elegans POS-1 RNA interaction – biochemical, fluorescence polarization, dose response (AID 1964);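 note: purified POS-1 fused to maltose binding protein made in E. coli; potency of compounds blocking POS-1 binding to fluorescent RNA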
# T7 sequence (G5EF15 whole entry): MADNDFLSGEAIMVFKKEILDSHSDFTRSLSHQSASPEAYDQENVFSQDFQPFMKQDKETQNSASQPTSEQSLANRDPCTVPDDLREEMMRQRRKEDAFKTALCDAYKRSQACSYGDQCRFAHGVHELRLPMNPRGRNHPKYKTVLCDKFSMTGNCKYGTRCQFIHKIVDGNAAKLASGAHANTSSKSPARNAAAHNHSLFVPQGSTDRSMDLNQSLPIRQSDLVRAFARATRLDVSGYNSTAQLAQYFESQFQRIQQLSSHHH
# [9] = biological target: Eukaryotic translation initiation factor 4E (Mus musculus, UniProt P63073); experiment: blockers of eIF4G binding by eIF4E – biochemical, TR-FRET, dose response (AID 855); type: functional;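 note: potency for disrupting eIF4E binding to eIF4GI seen as loss of FRET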
# Eukaryotic translation initiation factor 4E, sequence (P63073 whole entry): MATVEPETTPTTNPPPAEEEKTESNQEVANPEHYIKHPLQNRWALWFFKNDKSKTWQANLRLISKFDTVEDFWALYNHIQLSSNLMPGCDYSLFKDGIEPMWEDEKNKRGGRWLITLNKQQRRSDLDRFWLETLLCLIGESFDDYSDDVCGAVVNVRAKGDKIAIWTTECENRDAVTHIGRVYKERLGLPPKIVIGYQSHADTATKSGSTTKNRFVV
# Cytochrome P450 3A4, sequence (P08684 whole entry): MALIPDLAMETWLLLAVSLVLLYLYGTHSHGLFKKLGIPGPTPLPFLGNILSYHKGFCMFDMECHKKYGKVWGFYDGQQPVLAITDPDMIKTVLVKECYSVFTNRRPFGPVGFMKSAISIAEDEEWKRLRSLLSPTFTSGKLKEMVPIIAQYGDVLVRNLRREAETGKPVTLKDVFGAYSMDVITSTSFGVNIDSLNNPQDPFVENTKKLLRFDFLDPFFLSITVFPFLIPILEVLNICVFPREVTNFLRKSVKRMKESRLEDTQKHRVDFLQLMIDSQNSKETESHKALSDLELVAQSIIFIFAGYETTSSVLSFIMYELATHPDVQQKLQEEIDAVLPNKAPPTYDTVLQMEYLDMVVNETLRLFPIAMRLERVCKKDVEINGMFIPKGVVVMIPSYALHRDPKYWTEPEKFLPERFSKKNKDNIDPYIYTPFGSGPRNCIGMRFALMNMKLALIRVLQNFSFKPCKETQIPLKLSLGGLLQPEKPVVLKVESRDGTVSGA
# Melanocortin receptor 4, sequence (P32245 whole entry): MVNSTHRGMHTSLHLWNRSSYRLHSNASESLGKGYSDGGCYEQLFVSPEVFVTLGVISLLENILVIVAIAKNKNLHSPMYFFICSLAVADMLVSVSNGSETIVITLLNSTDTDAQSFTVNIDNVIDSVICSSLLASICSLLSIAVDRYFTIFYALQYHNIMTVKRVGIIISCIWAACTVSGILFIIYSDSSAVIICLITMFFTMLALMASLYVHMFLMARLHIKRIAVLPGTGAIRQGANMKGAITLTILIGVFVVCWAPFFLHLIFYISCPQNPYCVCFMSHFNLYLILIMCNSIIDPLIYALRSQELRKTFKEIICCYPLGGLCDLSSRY
# Glyceraldehyde-3-phosphate dehydrogenase, sequence (P04406 whole entry): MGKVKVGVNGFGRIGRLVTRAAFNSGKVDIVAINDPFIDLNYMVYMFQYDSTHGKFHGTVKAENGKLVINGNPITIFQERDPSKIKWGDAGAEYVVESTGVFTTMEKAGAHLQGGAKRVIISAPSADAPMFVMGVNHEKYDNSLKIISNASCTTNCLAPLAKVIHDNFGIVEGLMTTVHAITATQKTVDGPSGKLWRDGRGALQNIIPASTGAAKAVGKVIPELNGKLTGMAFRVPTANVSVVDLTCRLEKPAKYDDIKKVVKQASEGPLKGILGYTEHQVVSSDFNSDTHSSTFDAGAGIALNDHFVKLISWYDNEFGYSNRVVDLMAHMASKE
# Cytochrome P450 2C9, sequence (P11712 whole entry): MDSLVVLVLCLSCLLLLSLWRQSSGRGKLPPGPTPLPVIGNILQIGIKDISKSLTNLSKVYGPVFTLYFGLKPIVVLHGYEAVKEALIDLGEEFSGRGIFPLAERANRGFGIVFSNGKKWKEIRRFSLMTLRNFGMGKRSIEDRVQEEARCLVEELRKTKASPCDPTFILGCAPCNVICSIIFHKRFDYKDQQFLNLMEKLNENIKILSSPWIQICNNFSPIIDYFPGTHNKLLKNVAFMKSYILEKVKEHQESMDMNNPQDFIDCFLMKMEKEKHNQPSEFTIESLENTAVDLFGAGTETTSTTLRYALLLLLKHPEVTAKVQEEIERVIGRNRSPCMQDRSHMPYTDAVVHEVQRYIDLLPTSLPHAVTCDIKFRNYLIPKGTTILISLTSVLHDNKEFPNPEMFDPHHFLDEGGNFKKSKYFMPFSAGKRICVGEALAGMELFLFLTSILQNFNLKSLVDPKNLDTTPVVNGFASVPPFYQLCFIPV
structure (smiles),measurement,setting,value
CC(=O)c1cc2c(C)c(C(=O)c3ccccc3)oc2cc1O,EC50,[1],> 99 µM (inactive)
same,EC50,[2],> 99 µM (inactive)
COc1ccccc1C(=O)Nc1ccc2ccccc2c1,IC50,Protein skinhead-1,42.7 µM (active)
same,IC50,[3],> 10 µM (inconclusive)
same,IC50,[4],> 10 µM (inactive)
CC(=O)CC(=O)[C@@]1(O)CC[C@@H]2[C@@H]3C=C(C)C4=CC(=O)CC[C@@H]4[C@H]3CC[C@]21C,AC50,Cytochrome P450 3A4,inconclusive
same,AC50,Cytochrome P450 2C9,12.6 µM (inconclusive)
Cc1ccc(-c2nnc(-c3ccc(NC(=O)Cc4cccs4)cc3)o2)cc1,EC50,[5],5.97 µM (active)
same,EC50,Melanocortin receptor 4,> 89.2 µM (inactive)
same,EC50,[6],4.87 µM (active)
CC(=O)Nc1cc(-c2ccccc2N(C)C)cn2c(-c3ccccc3)cnc12,EC50,Melanocortin receptor 4,> 89.2 µM (inactive)
COCCNc1cc(-c2ccccc2C(F)(F)F)ncn1,AC50,Cytochrome P450 3A4,inconclusive
same,AC50,Cytochrome P450 1A2,15.8 µM (inconclusive)
CCOC(=O)c1ccc2c(c1)nc(C1CCN(S(=O)(=O)c3cccs3)CC1)n2CC,IC50,Coagulation factor XII,> 50 µM (inactive)
O=C(c1ccc(Cl)cc1)N1CCN(C(=O)c2ccco2)CC1,AC50,Cytochrome P450 3A4,inconclusive
COc1ccc(C2c3cc(OC)c(OC)cc3CCN2S(C)(=O)=O)cc1OC (stereo not given),EC50,[7],> 300 µM (not active)
same,EC50,[8],> 300 µM (not active)
same,IC50,Coagulation factor XII,> 50 µM (inactive)
same,IC50,[9],50 µM (inactive)
O=C(O)CC1(CC(=O)NCc2ccncc2)CCCCC1,IC50,Coagulation factor XII,> 50 µM (inactive)
